Source: patent publication US11566022B2, “3-(5-methoxy-1-oxoisoindolin-2-yl)piperidine-2,6-dione derivatives and uses thereof” (NOVARTIS AG, priority 2019, dated 2023)
Read-outs that look alike come from different tables or passages of the source.

Target: HiBit-WIZ fusion protein (Homo sapiens, UniProt O95785+Q96SW2)
Assay: Quantification of WIZ protein levels in HiBit tag fusion protein assay (WIZ HiBit assay in 293T cells)
Format: cell-based
Parameters: Dmax: dose or concentration left out as unconfirmed
Conditions: for remaining activity at up to 25 µM / WIZ Amax: DMSO-normalized, curve-fitted percentage of WIZ-HiBit remaining at 25 uM; for remaining activity at up to 25 µM: read-out: WIZ Amax; for DC50: WIZ HiBit assay in 293T cells, 10-point, 5-fold dose response, highest concentration 25 μM, about 18 hours, read-out: WIZ AC50; for % degradation of WIZ (100-Amax): at 25 uM
[1] = HEK-293T, 100 minus Amax, 293T cells, read-out: % degradation of WIZ (100-Amax)

Chain of HiBit-WIZ fusion protein (O95785 whole entry, the tested form may be a part): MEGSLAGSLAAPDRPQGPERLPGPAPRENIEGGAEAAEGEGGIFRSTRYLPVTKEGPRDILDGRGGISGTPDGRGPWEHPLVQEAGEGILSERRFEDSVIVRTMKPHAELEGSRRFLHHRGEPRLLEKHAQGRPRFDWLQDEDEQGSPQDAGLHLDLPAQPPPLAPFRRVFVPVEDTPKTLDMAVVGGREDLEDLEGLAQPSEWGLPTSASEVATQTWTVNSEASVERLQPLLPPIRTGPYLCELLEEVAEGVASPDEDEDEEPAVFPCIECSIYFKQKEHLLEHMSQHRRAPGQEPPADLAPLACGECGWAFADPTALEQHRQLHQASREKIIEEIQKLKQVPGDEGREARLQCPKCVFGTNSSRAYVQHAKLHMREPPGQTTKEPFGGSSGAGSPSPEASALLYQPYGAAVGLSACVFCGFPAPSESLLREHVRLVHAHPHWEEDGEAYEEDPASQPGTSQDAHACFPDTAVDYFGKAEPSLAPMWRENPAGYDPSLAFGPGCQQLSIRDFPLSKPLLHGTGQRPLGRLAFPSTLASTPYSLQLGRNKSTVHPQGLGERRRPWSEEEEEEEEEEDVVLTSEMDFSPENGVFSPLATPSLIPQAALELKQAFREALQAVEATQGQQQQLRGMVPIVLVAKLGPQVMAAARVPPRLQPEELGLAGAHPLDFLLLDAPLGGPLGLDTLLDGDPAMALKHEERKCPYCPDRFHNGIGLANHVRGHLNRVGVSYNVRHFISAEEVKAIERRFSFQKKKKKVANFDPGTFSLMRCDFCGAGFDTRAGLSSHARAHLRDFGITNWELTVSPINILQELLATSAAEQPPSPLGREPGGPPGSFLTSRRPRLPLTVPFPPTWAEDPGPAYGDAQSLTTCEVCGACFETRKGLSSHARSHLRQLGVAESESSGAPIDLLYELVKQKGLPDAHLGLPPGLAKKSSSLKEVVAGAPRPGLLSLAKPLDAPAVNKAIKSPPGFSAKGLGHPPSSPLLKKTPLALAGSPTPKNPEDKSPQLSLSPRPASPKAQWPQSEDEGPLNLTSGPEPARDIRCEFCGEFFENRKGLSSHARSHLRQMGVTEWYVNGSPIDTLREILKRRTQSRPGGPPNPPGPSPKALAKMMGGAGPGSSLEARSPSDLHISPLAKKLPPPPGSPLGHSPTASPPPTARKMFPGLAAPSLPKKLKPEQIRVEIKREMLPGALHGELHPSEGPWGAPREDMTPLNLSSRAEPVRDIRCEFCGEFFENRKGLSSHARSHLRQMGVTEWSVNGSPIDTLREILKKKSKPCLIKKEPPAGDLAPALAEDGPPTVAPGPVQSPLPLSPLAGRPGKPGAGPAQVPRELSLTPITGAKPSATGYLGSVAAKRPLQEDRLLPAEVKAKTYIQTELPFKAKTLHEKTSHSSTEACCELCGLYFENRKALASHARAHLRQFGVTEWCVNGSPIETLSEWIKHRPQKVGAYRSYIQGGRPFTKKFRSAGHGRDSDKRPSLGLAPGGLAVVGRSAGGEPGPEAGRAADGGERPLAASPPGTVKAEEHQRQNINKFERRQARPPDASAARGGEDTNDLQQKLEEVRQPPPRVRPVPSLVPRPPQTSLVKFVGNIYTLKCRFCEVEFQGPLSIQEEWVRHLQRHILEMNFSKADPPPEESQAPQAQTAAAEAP
Chain of HiBit-WIZ fusion protein (Q96SW2 whole entry, the tested form may be a part): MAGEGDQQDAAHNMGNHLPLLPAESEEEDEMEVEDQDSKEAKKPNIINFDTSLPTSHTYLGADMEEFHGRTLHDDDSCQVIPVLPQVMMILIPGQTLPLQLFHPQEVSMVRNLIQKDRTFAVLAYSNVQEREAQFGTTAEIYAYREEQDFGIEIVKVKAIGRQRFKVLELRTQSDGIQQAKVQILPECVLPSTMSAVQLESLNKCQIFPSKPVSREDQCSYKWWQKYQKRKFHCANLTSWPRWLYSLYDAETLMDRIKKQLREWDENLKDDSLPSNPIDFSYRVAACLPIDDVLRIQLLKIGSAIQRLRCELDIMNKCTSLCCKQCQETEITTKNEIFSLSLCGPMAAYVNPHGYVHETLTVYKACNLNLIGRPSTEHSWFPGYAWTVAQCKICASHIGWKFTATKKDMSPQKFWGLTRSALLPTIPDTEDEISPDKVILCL
Chain of HiBit-WIZ fusion protein (Q16531 whole entry partner, the tested form may be a part): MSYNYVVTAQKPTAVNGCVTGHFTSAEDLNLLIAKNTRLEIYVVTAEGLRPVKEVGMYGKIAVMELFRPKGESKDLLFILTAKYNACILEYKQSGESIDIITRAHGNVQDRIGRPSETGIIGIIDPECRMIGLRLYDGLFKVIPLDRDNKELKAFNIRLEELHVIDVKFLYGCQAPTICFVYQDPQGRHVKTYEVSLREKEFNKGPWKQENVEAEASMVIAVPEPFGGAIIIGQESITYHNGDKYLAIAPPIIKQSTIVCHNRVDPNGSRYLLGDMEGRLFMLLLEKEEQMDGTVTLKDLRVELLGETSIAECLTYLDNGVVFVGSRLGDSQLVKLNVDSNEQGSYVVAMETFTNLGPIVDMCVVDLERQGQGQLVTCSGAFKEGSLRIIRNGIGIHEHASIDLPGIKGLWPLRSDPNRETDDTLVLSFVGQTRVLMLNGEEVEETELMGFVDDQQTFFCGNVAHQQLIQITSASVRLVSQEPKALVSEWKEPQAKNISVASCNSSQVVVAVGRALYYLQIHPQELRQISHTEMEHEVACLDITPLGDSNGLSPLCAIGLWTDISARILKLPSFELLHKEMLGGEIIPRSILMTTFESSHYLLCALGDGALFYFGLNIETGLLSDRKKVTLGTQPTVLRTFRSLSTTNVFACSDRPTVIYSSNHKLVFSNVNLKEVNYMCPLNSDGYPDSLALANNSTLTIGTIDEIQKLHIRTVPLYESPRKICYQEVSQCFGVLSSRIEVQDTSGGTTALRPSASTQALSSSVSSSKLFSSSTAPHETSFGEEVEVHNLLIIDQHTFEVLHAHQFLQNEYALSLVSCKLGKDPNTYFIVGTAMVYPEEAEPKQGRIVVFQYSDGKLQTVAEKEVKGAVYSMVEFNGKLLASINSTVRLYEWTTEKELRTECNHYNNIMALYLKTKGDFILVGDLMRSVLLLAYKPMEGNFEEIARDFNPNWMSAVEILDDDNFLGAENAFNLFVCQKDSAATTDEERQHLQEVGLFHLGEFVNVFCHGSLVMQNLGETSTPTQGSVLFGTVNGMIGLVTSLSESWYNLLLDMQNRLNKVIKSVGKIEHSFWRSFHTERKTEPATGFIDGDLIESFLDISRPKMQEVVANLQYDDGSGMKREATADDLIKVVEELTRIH

SMILES | Dmax [1] [%] | remaining activity at up to 25 µM (HEK-293T, 293T cells) [%] | DC50 [µM] | Dmax (HEK-293T, read-out: % degradation of WIZ (100-Amax), 100 minus Amax, 293T cells) [%] | remaining activity (HEK-293T, read-out: WIZ Amax, DMSO-normalized, curve-fitted percentage of WIZ-HiBit remaining at 25 uM, 293T cells) [%] | % degradation of WIZ (100-Amax) (100 minus Amax, 293T cells) [%] | WIZ Amax (293T cells) [%]
O=C1CCC(N2Cc3cc(OC[C@H]4CCCCN4Cc4cccc5c4NCCO5)ccc3C2=O)C(=O)N1 (stereo partly drawn) [Compound I-178, 3-(5-(((R)-1-((3,4-dihydro-2H-benzo[b][1,4]oxazin-5-yl)methyl)piperidin-2-yl)methoxy)-1-oxoisoindolin-2-yl)piperidine-2,6-dione] | 78.7 | 21.3 | 0.02 |  |  |  | 
CCN1[C@@H]2CC[C@@H](C2)[C@H]1COc1ccc2c(c1)CN(C1CCC(=O)NC1=O)C2=O (stereo partly drawn) [Compound I-223, 3-(5-(((1R,3S,4S)-2-ethyl-2-azabicyclo[2.2.1]heptan-3-yl)methoxy)-1-oxoisoindolin-2-yl)piperidine-2,6-dione] | 82.8 | 17.1 | 0.072 |  |  |  | 
O=C1CCC(N2Cc3cc(OC[C@H]4CCCCN4Cc4cncnc4)ccc3C2=O)C(=O)N1 (some centres unmarked) [Compound I-50ce] | 43.9 | 56.1 | > 25 |  |  |  | 
CCN1CCN(c2ccc(F)cc2CN2CCCC[C@@H]2COc2ccc3c(c2)CN(C2CCC(=O)NC2=O)C3=O)CC1 (stereo partly drawn) [Compound I-169, 3-(5-(((R)-1-(2-(4-ethylpiperazin-1-yl)-5-fluorobenzyl)piperidin-2-yl)methoxy)-1-oxoisoindolin-2-yl)piperidine-2,6-dione] |  |  | 0.034 | 84.6 | 15.4 |  | 
O=C1CCC(N2Cc3cc(OC[C@H]4CCCCN4Cc4cc(-n5nnnc5C(F)(F)F)ccc4O)ccc3C2=O)C(=O)N1 (some centres unmarked) [Compound I-50ei] | 31.4 | 68.6 | > 25 |  |  |  | 
O=C1CCC(N2Cc3cc(OC[C@@H]4CCCCN4Cc4ccc(N5CCCC5=O)cc4)ccc3C2=O)C(=O)N1 (some centres unmarked) [Compound I-50o] | 58.4 | 41.6 | 12.5 |  |  |  | 
O=C1CCC(N2Cc3cc(OC[C@H]4CCCCN4Cc4cccn5ccnc45)ccc3C2=O)C(=O)N1 (some centres unmarked) [Compound I-50ca] | 76.3 | 23.7 | 0.239 |  |  |  | 
O=C1CCC(N2Cc3cc(OC[C@H]4CCCCN4Cc4c(F)cccc4F)ccc3C2=O)C(=O)N1 (some centres unmarked) [Compound I-147] | 71.6 | 28.4 | 1.08 |  |  |  | 
O=C1CCC(N2Cc3cc(OC[C@H]4CCCCN4Cc4ccc(C(=O)N5CCCC5)cc4)ccc3C2=O)C(=O)N1 (some centres unmarked) [Compound I-50bs] | 94.5 | 5.5 | 0.018 |  |  |  | 
CC(C)Cn1cc(CN2CCCC[C@H]2COc2ccc3c(c2)CN(C2CCC(=O)NC2=O)C3=O)cn1 (some centres unmarked) [Compound I-50ci] | 83.2 | 16.8 | 0.306 |  |  |  | 
CNc1ncccc1CN1CCCC[C@@H]1COc1ccc2c(c1)CN(C1CCC(=O)NC1=O)C2=O (some centres unmarked) [Compound I-50cj] | 71.8 | 28.2 | 0.757 |  |  |  | 
CCN1CCC[C@H]1C(C)Oc1ccc2c(c1)CN(C1CCC(=O)NC1=O)C2=O (single isomer, unassigned) [Compound I-27] |  |  | > 25 |  |  | 15.6 | 84.4
O=C1CCC(N2Cc3cc(OC[C@@H]4CCCCN4C(=O)C45CC(F)(C4)C5)ccc3C2=O)C(=O)N1 (some centres unmarked) [Compound I-72iv] | 2.2 | 97.8 | > 25 |  |  |  | 
CC(C)c1ccccc1C(=O)N1CCCC[C@H]1COc1ccc2c(c1)CN(C1CCC(=O)NC1=O)C2=O (some centres unmarked) [Compound I-72gi] | 14.9 | 85.1 | > 25 |  |  |  | 
CC(C)(C)OC(=O)N1CCN(c2ccccc2CN2CCCC[C@@H]2COc2ccc3c(c2)CN(C2CCC(=O)NC2=O)C3=O)CC1 (stereo partly drawn) [Compound I-105, Tert-butyl 4-(2-(((2R)-2-(((2-(2,6-dioxopiperidin-3-yl)-1-oxoisoindolin-5-yl)oxy)methyl)piperidin-1-yl)methyl)phenyl)piperazine-1-carboxylate] | 94.8 | 5.23 | 0.055 |  |  |  | 
CC(C)Oc1cccc(C(=O)N2CCCC[C@H]2COc2ccc3c(c2)CN(C2CCC(=O)NC2=O)C3=O)c1 (some centres unmarked) [Compound I-72ju] | 14.5 | 85.5 | > 25 |  |  |  | 
COc1ccc(CN2CCCC[C@H]2COc2ccc3c(c2)CN(C2CCC(=O)NC2=O)C3=O)cn1 (some centres unmarked) [Compound I-50bf] | 50.9 | 49.1 | > 25 |  |  |  | 
O=C1CCC(N2Cc3cc(OC[C@@H]4CCCCN4C(=O)CCCn4cnnc4)ccc3C2=O)C(=O)N1 (some centres unmarked) [Compound I-72fv] | 1.1 | 98.9 | > 25 |  |  |  | 
CCN1C2CCC(C2)C1COc1ccc2c(c1)CN(C1CCC(=O)NC1=O)C2=O (single isomer, unassigned) [I-255 (Isomer 1), 3-(5-((endo-2-ethyl-2-azabicyclo[2.2.1]heptan-3-yl)methoxy)-1-oxoisoindolin-2-yl)piperidine-2,6-dione] |  |  | 0.012 |  |  | 73.2 | 26.8

SMILES | Dmax [1] [%] | remaining activity at up to 25 µM (HEK-293T, 293T cells) [%] | DC50 [µM] | Dmax (HEK-293T, read-out: % degradation of WIZ (100-Amax), 100 minus Amax, 293T cells) [%] | remaining activity (HEK-293T, read-out: WIZ Amax, DMSO-normalized, curve-fitted percentage of WIZ-HiBit remaining at 25 uM, 293T cells) [%] | % degradation of WIZ (100-Amax) (100 minus Amax, 293T cells) [%] | WIZ Amax (293T cells) [%]
CCc1ocnc1C(=O)N1CCCC[C@H]1COc1ccc2c(c1)CN(C1CCC(=O)NC1=O)C2=O (some centres unmarked) [Compound I-72ah] | 22.9 | 77.1 | > 25 |  |  |  | 
O=C1CCC(N2Cc3cc(OC[C@@H]4CCCCN4C(=O)[C@H]4CCN(Cc5ccccc5)C4)ccc3C2=O)C(=O)N1 (some centres unmarked) [Compound I-72cy] | 15.2 | 84.8 | > 25 |  |  |  | 
Cc1nc[nH]c1CN1CCCC[C@H]1COc1ccc2c(c1)CN(C1CCC(=O)NC1=O)C2=O (some centres unmarked) [Compound I-50ac] | 92.3 | 7.7 | 0.578 |  |  |  | 
Cc1c(-c2ccccc2)n[nH]c1C(=O)N1CCCC[C@H]1COc1ccc2c(c1)CN(C1CCC(=O)NC1=O)C2=O (some centres unmarked) [Compound I-72by] | 52 | 48 | 19.8 |  |  |  | 
O=C1CCC(N2Cc3cc(OC[C@H]4CCCCN4Cc4nccn4Cc4ccccc4)ccc3C2=O)C(=O)N1 (some centres unmarked) [Compound I-50ax] | 92.5 | 7.5 | 0.149 |  |  |  | 
CCOC(=O)c1cccc2[nH]nc(CN3CCCC[C@@H]3COc3ccc4c(c3)CN(C3CCC(=O)NC3=O)C4=O)c12 (some centres unmarked) [Compound I-50er] | 89.8 | 10.2 | 0.92 |  |  |  | 
O=C1CCC(N2Cc3cc(OC[C@@H]4CCCCN4C(=O)c4cccc(N5CCOCC5)n4)ccc3C2=O)C(=O)N1 (some centres unmarked) [Compound I-72ae] | 14.7 | 85.3 | > 25 |  |  |  | 
CCN1CCCC(C)(C)C1COc1ccc2c(c1)CN(C1CCC(=O)NC1=O)C2=O (single isomer, unassigned) [Compound I-19, 3-(5-((1-ethyl-3,3-dimethylpiperidin-2-yl)methoxy)-1-oxoisoindolin-2-yl)piperidine-2,6-dione] |  |  | > 25 |  |  | 34.7 | 65.3
N#Cc1cc(CN2CCCC[C@H]2COc2ccc3c(c2)CN(C2CCC(=O)NC2=O)C3=O)ccn1 (some centres unmarked) [Compound I-50bl] | 17.6 | 82.4 | > 25 |  |  |  | 
O=C1CCC(N2Cc3cc(OC[C@@H]4CCCCN4Cc4cc(Cl)ccc4O)ccc3C2=O)C(=O)N1 (some centres unmarked) [Compound I-50bj] | 25.8 | 74.2 | > 25 |  |  |  | 
COC12CC(CN3CCCC[C@@H]3COc3ccc4c(c3)CN(C3CCC(=O)NC3=O)C4=O)(C1)C2 (stereo partly drawn) [Compound I-163, 3-(5-(((R)-1-((3-methoxybicyclo[1.1.1]pentan-1-yl)methyl)piperidin-2-yl)methoxy)-1-oxoisoindolin-2-yl)piperidine-2,6-dione] | 70.5 | 29.5 | 0.029 |  |  |  | 
COC1CCC(CN2CCCCC2C(C)Oc2ccc3c(c2)CN(C2CCC(=O)NC2=O)C3=O)CC1 (centres unmarked) [Compound I-217, 3-(5-(1-(1-((4-methoxycyclohexyl)methyl)piperidin-2-yl)ethoxy)-1-oxoisoindolin-2-yl)piperidine-2,6-dione] | 0.4 | 99.6 |  |  |  |  | 
CCc1ncc(C(=O)N2CCCC[C@H]2COc2ccc3c(c2)CN(C2CCC(=O)NC2=O)C3=O)s1 (some centres unmarked) [Compound I-72jf] | 34.2 | 65.8 | > 25 |  |  |  | 
CC(C)CN1CCN(c2ccccc2CN2CCCC[C@@H]2COc2ccc3c(c2)CN(C2CCC(=O)NC2=O)C3=O)CC1 (stereo partly drawn) [Compound I-107, 3-(5-(((R)-1-(2-(4-isobutylpiperazin-1-yl)benzyl)piperidin-2-yl)methoxy)-1-oxoisoindolin-2-yl)piperidine-2,6-dione] | 99.8 | 0.21 | 0.016 |  |  |  | 
O=C1CCC(N2Cc3cc(OC[C@H]4CCCCN4Cc4ncc[nH]4)ccc3C2=O)C(=O)N1 (some centres unmarked) [Compound I-50et] | 49.1 | 50.9 | > 25 |  |  |  | 
CC(C)n1nccc1C(=O)N1CCCC[C@H]1COc1ccc2c(c1)CN(C1CCC(=O)NC1=O)C2=O (some centres unmarked) [Compound I-72ez] | 0 | 100 | > 25 |  |  |  | 
CCN(CC)c1ccc(CN2CCCC[C@@H]2COc2ccc3c(c2)CN(C2CCC(=O)NC2=O)C3=O)cn1 (some centres unmarked) [Compound I-50eb] | 98.5 | 1.5 | 0.002 |  |  |  | 
N#Cc1cccc(Cn2cccc(CN3CCCC[C@@H]3COc3ccc4c(c3)CN(C3CCC(=O)NC3=O)C4=O)c2=O)c1 (some centres unmarked) [Compound I-50cp] | 65.2 | 34.8 | 3.53 |  |  |  | 
O=C1CCC(N2Cc3cc(OC[C@@H]4CCCCN4Cc4c[nH]cn4)ccc3C2=O)C(=O)N1 (some centres unmarked) [Compound I-50al] | 54.1 | 45.9 | > 25 |  |  |  | 
